From a compilation of properties of binary mixtures (doi:10.1016/j.molliq.2017.02.011)

Test: xn = mol fraction of the nth substance listed
Conditions: 100 kPa

O=C1CCCCC1 + CCCC[n+]1ccn(C)c1C.F[B-](F)(F)F
x2 = 0
Conditions	speed of sound [m/s]
298.15 K	1414.5
308.15 K	1375.1

CCCC[n+]1ccn(C)c1C.F[B-](F)(F)F + O=C1CCCCC1
speed of sound [m/s]
Conditions	293.15 K	298.15 K	303.15 K	308.15 K
x1 = 0.0834	1450.2	1433.6	1413.1	1392
x1 = 0.1328	1459.4	1442.1	1421.5	–
x1 = 0.1764	1467.2	1448.8	1427.9	1406.3
x1 = 0.2258	1472.4	–	1433.4	1412.3
x1 = 0.2675	1476.1	1458.1	1437.7	1417.1
x1 = 0.3094	1479.6	–	1441.5	1420.8
x1 = 0.3824	1486	1468.5	–	1428.9
x1 = 0.4368	–	–	1454.6	1434.8
x1 = 0.4755	1496	1478.6	–	1440.1
x1 = 0.5276	1503.2	1486.2	1467.5	1448.5
x1 = 0.5649	1509.3	1492.5	1474.1	1455.6
x1 = 0.6063	1517	1500.4	1482.5	1464.2
x1 = 0.6451	1525.2	1508.9	–	1473.4
x1 = 0.6947	–	1521.1	1504.3	1487.3
x1 = 0.7419	1550.5	1534.8	1518.7	–
x1 = 0.7994	–	1553.9	–	–
x1 = 0.8527	1589.2	1574.3	1559.8	1544.8
x1 = 0.9134	1615.7	–	1587.9	–
x1 = 1	1659.7	1645.7	1632.5	–
